Results on 25 molecules are retold here after patent EP1057484A1, “CELL DEATH INHIBITORS” (priority 1998, dated 1999).

SMILES strings stand for the structures.

For the first assay, the system named is Porcine Ovarian Granulosa Cells. The assay is described as follows: Test Example 7: inhibition of SNP-induced apoptosis of undifferentiated POGC. The following applies: Sus scrofa; for complete inhibition of apoptosis; SNP 0.5 mM; cells observed after 48 hours; read-out: Minimum effective concentration. Type of assay: cell-based.
Consider `O=C1C(c2c[nH]c3ccccc23)=C(c2c[nH]c3ccccc23)C(=O)N1O` [Compound 12], for which the minimal effective concentration was determined as 15 µM.

For the molecule `CCCN1C(=O)C(c2c[nH]c3ccccc23)=C(c2c[nH]c3ccccc23)C1=O` [Compound 15], the minimal effective concentration was 3 µM.

Take `CN1C(=O)C(c2c[nH]c3ccccc23)=C(c2c[nH]c3ccccc23)C1O` (stereo not shown) [Compound 16]: the minimal effective concentration worked out at 5 µM.

Turning to `CN1C(=O)C(c2c[nH]c3ccccc23)=C(c2cn(CCCNC(=O)c3ccccc3)c3ccccc23)C1=O` [Compound 21], the minimal effective concentration came to 7 µM.

Regarding `CN1C(=O)C(c2c[nH]c3ccccc23)=C(c2cn(C(=O)OC(C)(C)C)c3ccccc23)C1=O` [Compound 22], the minimal effective concentration was 5 µM.

As to `CN1C(=O)C(c2cn(C(=O)OC(C)(C)C)c3ccccc23)=C(c2cn(C(=O)OC(C)(C)C)c3ccccc23)C1=O` [Compound 23], the minimal effective concentration came to 5 µM.

Turning to `Cn1cc(C2=C(c3cn(CCCN)c4ccccc34)C(=O)NC2=O)c2ccccc21` [Compound 26], the minimal effective concentration was 1 µM.

On to `N=C(N)SCCCn1cc(C2=C(c3c[nH]c4ccccc34)C(=O)NC2=O)c2ccccc21` [Compound 27], for which the minimal effective concentration turned out to be 1 µM.

As for `CN1C(=O)C(c2c[nH]c3ccccc23)C(c2c[nH]c3ccccc23)C1=O` (stereo not shown) [Compound 30], the minimal effective concentration amounted to 10 µM.

The assay is the same for the next values; noted with them: Sus scrofa; for complete inhibition of apoptosis; SNP 0.5 mM; judged at 18 hours after SNP treatment; read-out: Minimum effective concentration.
For `CN1CCCC1CCn1cc(C2=C(c3c[nH]c4ccccc34)C(=O)NC2=O)c2ccccc21` (stereo not shown) [Compound 28], the minimal effective concentration came out at 3 µM.

Turning to `CN(C)CC1CCn2c(c(C3=C(c4cn(C)c5ccccc45)C(=O)NC3=O)c3ccccc32)C1` (stereo not shown) [Compound 29], the minimal effective concentration stood at 1 µM.

Turning to `CN1C(=O)C(c2c[nH]c3ccccc23)C(c2cn(CCCN)c3ccccc23)C1=O` (stereo not shown) [Compound 33], the minimal effective concentration is 10 µM.

Take `c1ccc(N2CC(c3c[nH]c4ccccc34)C(c3c[nH]c4ccccc34)C2)cc1` (stereo not shown) [Compound 34]: the minimal effective concentration was determined as 0.3 µM.

For `CN1C(=O)C(c2c[nH]c3ccccc23)=C(c2cn(C)c3ccccc23)C1=O` [Compound 35], the minimal effective concentration was 10 µM.

As to `CN1C(=O)C(c2cn(C)c3ccccc23)=C(c2cn(C)c3ccccc23)C1=O` [Compound 36], the minimal effective concentration was determined as 10 µM.

Take `CN(C)CCCn1cc(C2=C(c3cn(CCCN(C)C)c4ccccc34)C(=O)N(C)C2=O)c2ccccc21` [Compound 37]: the minimal effective concentration was 10 µM.

Consider `Cc1ccc2c(C3=C(c4c[nH]c5cc(C)ccc45)C(=O)N(C)C3=O)c[nH]c2c1` [Compound 38], for which the minimal effective concentration came to 0.3 µM.

As to `Cc1cccc2c(C3=C(c4c[nH]c5ccccc45)C(=O)N(C)C3=O)c[nH]c12` [Compound 39], the minimal effective concentration stood at 3 µM.

Consider `Cc1ccc2[nH]cc(C3=C(c4c[nH]c5ccc(C)cc45)C(=O)N(C)C3=O)c2c1` [Compound 40], for which the minimal effective concentration turned out to be 1 µM.

In the case of `CN1C(=O)C(c2c[nH]c3ccc(F)cc23)=C(c2c[nH]c3ccc(F)cc23)C1=O` [Compound 41], the minimal effective concentration came out at 10 µM.

For `CN1C(=O)C(c2c[nH]c3ccc(Br)cc23)=C(c2c[nH]c3ccc(Br)cc23)C1=O` [Compound 42], the minimal effective concentration worked out at 1 µM.

For the molecule `CN1C(=O)C(c2c[nH]c3ccccc23)=C(c2c[nH]c3ccc(Cl)cc23)C1=O` [Compound 43], the minimal effective concentration came to 3 µM.

For `COc1ccc2[nH]cc(C3=C(c4c[nH]c5ccc(OC)cc45)C(=O)N(C)C3=O)c2c1` [Compound 44], the minimal effective concentration was determined as 1 µM.

Still in this assay, the particulars now being: Sus scrofa; for complete inhibition of apoptosis; SNP 0.5 mM; judged at 30 hours after SNP treatment; read-out: Minimum effective concentration.
`O=C1OC(=O)C(c2c[nH]c3ccccc23)=C1c1c[nH]c2ccccc12` [Compound 11]: the minimal effective concentration stood at 10 µM.

Regarding `CCN(CC)c1ccc2c(-c3ccc(S(=O)(=O)NCCCn4cc(C5=C(c6cn(C)c7ccccc67)C(=O)NC5=O)c5ccccc54)cc3S(=O)(=O)[O-])c3ccc(=[N+](CC)CC)cc-3oc2c1` [Compound 31], the minimal effective concentration was found to be 3 µM.
